Test: Inhibition of gastric H+/K+-ATPase in Kunming mouse stomach parietal cells
Assay type: tissue-based

In the case of `CC(C)C/C=C1\O[C@H]2C[C@@H](C)CC(=O)[C@H]2[C@@]1(C)O`, the IC50 is reported as 23.2 µM.

Test: Inhibition of pig gastric H+/K+-ATPase in stomach ion leaky membrane vesicle assessed as reduction in monophosphate production after 30 mins by microplate reader analysis in presence of valinomycin
Assay type: cell membranes, Sus scrofa

Compared with `CC(C)C/C=C1\O[C@H]2C[C@@H](C)C/C(=N\O)[C@H]2[C@@]1(C)O`, `C#CCO/N=C1\C[C@H](C)C[C@@H]2O/C(=C\CC(C)C)[C@](C)(O)[C@H]12` is higher in pIC50: 5.54 for the first, 6.36 for the second.

`CCOC(=O)CO/N=C1\C[C@H](C)C[C@@H]2O/C(=C\CC(C)C)[C@](C)(O)[C@H]12` and `CCCCO/N=C1\C[C@H](C)C[C@@H]2O/C(=C\CC(C)C)[C@](C)(O)[C@H]12` are within 0.2 log units of each other in pIC50: 6.07 for the first, 5.94 for the second.

First: CC(C)C/C=C1\O[C@H]2C[C@@H](C)C/C(=N\OCc3ccccc3)[C@H]2[C@@]1(C)O
Second: CC(C)C/C=C1\O[C@H]2C[C@@H](C)C/C(=N\OC(=O)Nc3ccccc3)[C@H]2[C@@]1(C)O
The pIC50 of the first is higher: 6.25 for the first, 6 for the second.

With `CC(C)CCC1O[C@H]2C[C@@H](C)C/C(=N\O)[C@H]2[C@@]1(C)O` (some centres undefined) the pIC50 was 5.3.

Work on `Cc1nc(Nc2ccc(F)cc2)nc(N2CCc3ccccc3C2C)c1C` (centres undefined) [REVAPRAZAN] yielded an IC50 of 0.95 µM.

From ChEMBL document CHEMBL3792289, “Design, synthesis and biological evaluation of bisabolangelone oxime derivatives as potassium-competitive acid blockers (P-CABs)” (Bioorg Med Chem Lett, 2016)
